Publication PMC8075848 (Cell Reports, 2021)
Read-outs that look alike come from different tables or passages of the source.

How the values were obtained:
SARS-CoV-2 [1] = test: SARS-CoV-2 replication inhibition in Vero E6 cells; assay type: cell-based; details: up to 50 μM drug
SARS-CoV-2 [2] = assay type: cell-based
SARS-CoV-2 M^pro [3] = biological target: T1, SARS-CoV-2 M^pro (Severe acute respiratory syndrome coronavirus 2, UniProt P0DTD1); test: M^pro FRET proteolysis inhibition assay; assay type: biochemical; details: 20 μM drug, 10 nM M^pro
PL^pro = details: ref Anson et al., 2020; cited from earlier work
SARS-CoV-2 M^pro [4] = biological target: T1, SARS-CoV-2 M^pro; test: M^pro 1D 1H-NMR proteolysis inhibition assay; assay type: biochemical; details: 50 μM inhibitor, 100 nM M^pro
M^pro = details: cited from earlier work; for Inhibition of M^pro proteolytic activity: ref Anson et al., 2020, Fu et al., Kneller et al., 2020a, Ma et al.
SARS-CoV-2 [5] = test: Antiviral combination assay with remdesivir in Vero E6 cells; assay type: cell-based; details: for Effect of HCV drug on the antiviral activity of remdesivir, in words / Effect of remdesivir on the antiviral activity (IC90) of the HCV drug, in words: Vero cells; for Effect of HCV drug on the antiviral activity of remdesivir, in words: IC90 of remdesivir with increasing HCV drug; for Effect of remdesivir on the antiviral activity (IC90) of the HCV drug, in words: addition of 1.25 μM remdesivir
SARS-CoV-2 [6] = details: ref Anson et al., 2020, Fu et al., Ma et al.; cited from earlier work
SARS-CoV-2 PL^pro = SARS-CoV-2 PL^pro (Severe acute respiratory syndrome coronavirus 2, UniProt P0DTD1); assay type: biochemical; details: for PL^pro protease activity inhibition, in words: 20 μM drug (grazoprevir in Fig S6: 100 µM)
SARS-CoV-2 [7] = test: Time-of-addition assay; assay type: cell-based; details: BOC 50 μM, GRZ 25 μM, NAR 50 μM, VAN 5 μM, SIM 5 μM, added -2, 0, +2, +4 h
SARS-CoV-2 [8] = assay type: cell-based; remark: listed apart in the source
Vero E6 cells = details: MTT
SARS-CoV-2 [9] = details: ref Lo et al., 2021; cited from earlier work

SMILES	Inhibition of virus replication in Vero E6 cells, in words (SARS-CoV-2 [1])	M^pro inhibition activity in FRET assay, in words (SARS-CoV-2 M^pro [3])	M^pro inhibitory activity in 1D 1H-NMR assay, in words (SARS-CoV-2 M^pro [4])	Synergy Score (ZIP, SynergyFinder) with remdesivir (SARS-CoV-2 [5])	PL^pro protease activity inhibition, in words (SARS-CoV-2 PL^pro)	further results
C=C[C@@H]1C[C@]1(NC(=O)[C@@H]1C[C@@H](Oc2ncc(OC)c3ccc(Cl)cc23)CN1C(=O)[C@@H](NC(=O)OC(C)(C)C)C(C)(C)C)C(=O)NS(=O)(=O)C1CC1 [ASU, Asunaprevir]	inhibited SARS-CoV-2 virus replication at concentrations significantly lower than the concentrations that cause cytotoxicity	not detected	moderate inhibitory activity	–	–	Inhibition of virus replication in human 293T cells, in words (SARS-CoV-2 [2]): did not inhibit viral replication in human cells at concentrations lower than those exhibiting cytotoxicity; Inhibition of PL^pro (PL^pro): inhibit
CC(C)(C)NC(=O)N[C@H](C(=O)N1C[C@H]2[C@@H]([C@H]1C(=O)NC(CC1CCC1)C(=O)C(N)=O)C2(C)C)C(C)(C)C (stereo partly shown) [BOC, Boceprevir]	inhibited SARS-CoV-2 virus replication at concentrations significantly lower than the concentrations that cause cytotoxicity	–	substantial enzyme inhibition activity	−7.6	–	Inhibition of M^pro proteolytic activity (M^pro): inhibit; Effect of HCV drug on the antiviral activity of remdesivir, in words (SARS-CoV-2 [5]): did not significantly affect the antiviral activity of remdesivir; Effect of remdesivir on the antiviral activity (IC90) of the HCV drug, in words (SARS-CoV-2 [5]): did not significantly affect; Inhibition of SARS-CoV-2 replication in Vero cells (SARS-CoV-2 [6]): inhibit
CC(C)(C)OC(=O)N[C@H]1CCCCC/C=C\[C@@H]2C[C@@]2(C(=O)NS(=O)(=O)C2CC2)NC(=O)[C@@H]2C[C@@H](OC(=O)N3Cc4cccc(F)c4C3)CN2C1=O [DAN, Danoprevir]	did not inhibit virus replication	–	–	–	–	Inhibition of virus replication in human 293T cells, in words (SARS-CoV-2 [2]): did not inhibit virus replication
CC(C)C[C@H](NC(=O)OCc1ccccc1)C(=O)N[C@@H](CC1CCNC1=O)C(O)S(=O)(=O)[O-].[Na+] (stereo partly shown) [GC-376]	–	–	–	–	–	Specificity for M^pro relative to PL^pro (M^pro; ref Sacco et al., 2020): specific; Interaction with remdesivir (additive / synergistic) (SARS-CoV-2 [5]; combination with remdesivir, Vero E6 cells): additive (an additive interaction has a score between −10 to +10)
CC(C)(C)[C@@H]1NC(=O)O[C@@H]2CCC[C@H]2OC/C=C/C(F)(F)c2nc3ccccc3nc2O[C@@H]2C[C@@H](C(=O)N[C@]3(C(=O)NS(=O)(=O)C4(C)CC4)C[C@H]3C(F)F)N(C2)C1=O [GLE, Glecaprevir]	did not inhibit virus replication	–	–	–	–	Inhibition of virus replication in human 293T cells, in words (SARS-CoV-2 [2]): did not inhibit virus replication
C=C[C@@H]1C[C@]1(NC(=O)[C@@H]1C[C@@H]2CN1C(=O)[C@H](C(C)(C)C)NC(=O)O[C@@H]1C[C@H]1CCCCCc1nc3ccc(OC)cc3nc1O2)C(=O)NS(=O)(=O)C1CC1.O [GRZ, Grazoprevir]	inhibited SARS-CoV-2 virus replication at concentrations significantly lower than the concentrations that cause cytotoxicity	not detected	moderate inhibitory activity	+25.0	inhibit	PL^pro initial rate relative to absence of inhibitor (vo/vo,i) (SARS-CoV-2 PL^pro; 100 μM drug concentration): 32% ± 7%; Effect of HCV drug on the antiviral activity of remdesivir, in words (SARS-CoV-2 [5]): increase the antiviral activity of remdesivir; Effect of remdesivir on the antiviral activity (IC90) of the HCV drug, in words (SARS-CoV-2 [5]): substantially reduces; Inhibition of virus replication by time of drug addition, in words (SARS-CoV-2 [7]): inhibited by the addition of these drugs as late as 4 h post-infection; Interaction with remdesivir (additive / synergistic) (SARS-CoV-2 [8]): synergistic (key: a synergistic interaction between drugs has a score greater than +10; an additive interaction has a score between −10 to +10; an antagonistic interaction has a score of less than −10); Synergy Score (ZIP, SynergyFinder) with remdesivir (SARS-CoV-2 [8]): +20.3; Inhibition of PL^pro (PL^pro): inhibit
CCCC[C@H](NC(=O)[C@@H]1[C@@H]2[C@H](CN1C(=O)[C@@H](NC(=O)NC1(CS(=O)(=O)C(C)(C)C)CCCCC1)C(C)(C)C)C2(C)C)C(=O)C(=O)NC1CC1 [NAR, Narlaprevir]	inhibited SARS-CoV-2 virus replication at concentrations significantly lower than the concentrations that cause cytotoxicity	–	substantial enzyme inhibition activity	–	–	Inhibition of M^pro proteolytic activity (M^pro): inhibit
Cc1cnc(C(=O)N[C@H]2CCCCC/C=C\[C@@H]3C[C@@]3(C(=O)NS(=O)(=O)C3CC3)NC(=O)[C@@H]3C[C@@H](Oc4nc5ccccc5c5ccccc45)CN3C2=O)cn1 [PAR, Paritaprevir]	inhibited SARS-CoV-2 virus replication at concentrations significantly lower than the concentrations that cause cytotoxicity	does not inhibit	does not inhibit	+17.3	inhibit	–
CCC(CC)COC(=O)[C@H](C)N[P@](=O)(OC[C@H]1O[C@@](C#N)(c2ccc3c(N)ncnn23)[C@H](O)[C@@H]1O)Oc1ccccc1 [Remdesivir, remdesivir]	–	–	–	–	–	Inhibition of virus replication by time of drug addition, in words (SARS-CoV-2 [7]): decreased its ability to suppress virus infection
COc1ccc2c(O[C@@H]3C[C@H]4C(=O)N[C@]5(C(=O)NS(=O)(=O)C6CC6)C[C@H]5/C=C\CCCCN(C)C(=O)[C@@H]4C3)cc(-c3nc(C(C)C)cs3)nc2c1C [SIM, Simeprevir]	inhibited virus replication with low IC50 values	not detected	moderate inhibitory activity	+30.2	inhibit	Effect of HCV drug on the antiviral activity of remdesivir, in words (SARS-CoV-2 [5]): increase the antiviral activity of remdesivir; Effect of remdesivir on the antiviral activity (IC90) of the HCV drug, in words (SARS-CoV-2 [5]): substantially reduces; Cytotoxicity in Vero E6 cells, in words (Vero E6 cells): some cytotoxicity was also observed; Inhibition of virus replication by time of drug addition, in words (SARS-CoV-2 [7]): inhibited by the addition of these drugs as late as 4 h post-infection; Interaction with remdesivir (SARS-CoV-2 [9]): synergistically; Inhibition of PL^pro (PL^pro): inhibit
CCC[C@H](NC(=O)[C@@H]1[C@H]2CCC[C@H]2CN1C(=O)[C@@H](NC(=O)[C@@H](NC(=O)c1cnccn1)C1CCCCC1)C(C)(C)C)C(=O)C(=O)NC1CC1 [TEL, Telaprevir]	did not inhibit virus replication	–	substantial enzyme inhibition activity	–	–	Inhibition of M^pro proteolytic activity (M^pro): inhibit
CC[C@@H]1C[C@]1(NC(=O)[C@@H]1C[C@@H]2CN1C(=O)[C@H](C(C)(C)C)NC(=O)OCC(C)(C)CCCCc1cccc3c1CN(C3)C(=O)O2)C(=O)NS(=O)(=O)C1CC1 [VAN, Vaniprevir]	inhibited virus replication with low IC50 values	not detected	substantial inhibitory activity	–	inhibit	Cytotoxicity in Vero E6 cells, in words (Vero E6 cells): some cytotoxicity was also observed
